# US20250176599A1, “FLAVOR COMPOSITION AND FOOD AND BEVERAGE” (TAKASAGO INTERNATIONAL CORPORATION, priority 2021, published 2025)
# What was measured:
# [1] = Sensory evaluation of aqueous solution VI containing 1,5-octadien-3-ol 10 ppb: off-flavor intensity and masking component intensity; details: aqueous solution VI, 1,5-octadien-3-ol 10 ppb, average score 0-4
# Procedure, shortened: (§1)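 A sensory panel of eight scores each nootkatone-containing spiked water sample on two 0–4 scales. Off-flavor is relative, with the unmasked solution fixed at 4. Masker taste is absolute.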
# [2] = Overall conclusion of the sensory evaluation across aqueous solutions I to VI
# Procedure, shortened: as §1
# [3] = Sensory evaluation of aqueous solution II containing (E)-2-octenal 10 ppb: off-flavor intensity and masking component intensity; details: (E)-2-octenal 10 ppb, average score 0-4
# Procedure, shortened: as §1
# [4] = Sensory evaluation of aqueous solution V containing 1-octen-3-ol 10 ppb: off-flavor intensity and masking component intensity; details: 1-octen-3-ol 10 ppb, average score 0-4
# Procedure, shortened: as §1
# [5] = Sensory evaluation of aqueous solution IV containing 1,5-octadien-3-one 100 ppt: off-flavor intensity and masking component intensity; details: aqueous solution IV, 1,5-octadien-3-one 100 ppt, average score 0-4
# Procedure, shortened: as §1
# [6] = Sensory evaluation of aqueous solution III containing 1-octen-3-one 1 ppb: off-flavor intensity and masking component intensity; details: 1-octen-3-one 1 ppb, average score 0-4
# Procedure, shortened: as §1
# [7] = Sensory evaluation of aqueous solution I containing (E)-2-nonenal 1 ppb: off-flavor intensity and masking component intensity; details: (E)-2-nonenal 1 ppb, average score 0-4
# Procedure, shortened: as §1
smiles,measurement,setting,value
"C/C=C/C(=O)C1=C(C)C=CCC1(C)C [β-Damascenone, β-damascenone]",Off-Flavor Intensity,[1]; 0.001 ppt added,2.6 points
same,Off-Flavor Intensity,[1]; 0.01 ppt added,2.1 points
same,Off-Flavor Intensity,[1]; 0.1 ppt added,1.9 points
same,Off-Flavor Intensity,[1]; 1 ppb added,0.6 points
same,Off-Flavor Intensity,[1]; 1 ppt added,1.7 points
same,Off-Flavor Intensity,[1]; 10 ppb added,0.2 points
same,Off-Flavor Intensity,[1]; 10 ppt added,1.3 points
same,Off-Flavor Intensity,[1]; 100 ppb added,0.0 points
same,Off-Flavor Intensity,[1]; 100 ppt added,0.9 points
same,"concentration that masks the off-flavor and does not affect the flavor of the food and/or beverage itself, lower limit",[2],≥ 0.001 ppt
same,"concentration that masks the off-flavor and does not affect the flavor of the food and/or beverage itself, upper limit",[2],≤ 10 ppb
same,Off-Flavor Intensity,[3]; 0.001 ppt added,2.9 points
same,Off-Flavor Intensity,[3]; 0.01 ppt added,2.8 points
same,Off-Flavor Intensity,[3]; 0.1 ppt added,2.4 points
same,Off-Flavor Intensity,[3]; 1 ppb added,1.1 points
same,Off-Flavor Intensity,[3]; 1 ppt added,2.1 points
same,Off-Flavor Intensity,[3]; 10 ppb added,0.9 points
same,Off-Flavor Intensity,[3]; 10 ppt added,1.9 points
same,Off-Flavor Intensity,[3]; 100 ppb added,0.8 points
same,Off-Flavor Intensity,[3]; 100 ppt added,1.4 points
same,Off-Flavor Intensity,[4]; 0.001 ppt added,3.4 points
same,Off-Flavor Intensity,[4]; 0.01 ppt added,3.1 points
same,Off-Flavor Intensity,[4]; 0.1 ppt added,2.6 points
same,Off-Flavor Intensity,[4]; 1 ppb added,1.5 points
same,Off-Flavor Intensity,[4]; 1 ppt added,2.4 points
same,Off-Flavor Intensity,[4]; 10 ppb added,1.1 points
same,Off-Flavor Intensity,[4]; 10 ppt added,2.4 points
same,Off-Flavor Intensity,[4]; 100 ppb added,0.8 points
same,Off-Flavor Intensity,[4]; 100 ppt added,2.0 points
same,Off-Flavor Intensity,[5]; 0.001 ppt added,3.5 points
same,Off-Flavor Intensity,[5]; 0.01 ppt added,3.4 points
same,Off-Flavor Intensity,[5]; 0.1 ppt added,3.3 points
same,Off-Flavor Intensity,[5]; 1 ppb added,2.3 points
same,Off-Flavor Intensity,[5]; 1 ppt added,3.1 points
same,Off-Flavor Intensity,[5]; 10 ppb added,1.6 points
same,Off-Flavor Intensity,[5]; 10 ppt added,2.8 points
same,Off-Flavor Intensity,[5]; 100 ppb added,1.6 points
same,Off-Flavor Intensity,[5]; 100 ppt added,2.5 points
same,Off-Flavor Intensity,[6]; 0.001 ppt added,3.6 points
same,Off-Flavor Intensity,[6]; 0.01 ppt added,3.6 points
same,Off-Flavor Intensity,[6]; 0.1 ppt added,3.3 points
same,Off-Flavor Intensity,[6]; 1 ppb added,1.9 points
same,Off-Flavor Intensity,[6]; 1 ppt added,2.9 points
same,Off-Flavor Intensity,[6]; 10 ppb added,1.4 points
same,Off-Flavor Intensity,[6]; 10 ppt added,2.5 points
same,Off-Flavor Intensity,[6]; 100 ppb added,1.3 points
same,Off-Flavor Intensity,[6]; 100 ppt added,2.3 points
same,Off-Flavor Intensity,[7]; 0.001 ppt added,3.5 points
same,Off-Flavor Intensity,[7]; 0.01 ppt added,3.5 points
same,Off-Flavor Intensity,[7]; 0.1 ppt added,2.9 points
same,Off-Flavor Intensity,[7]; 1 ppb added,1.8 points
same,Off-Flavor Intensity,[7]; 1 ppt added,2.5 points
same,Off-Flavor Intensity,[7]; 10 ppb added,1.4 points
same,Off-Flavor Intensity,[7]; 10 ppt added,2.4 points
same,Off-Flavor Intensity,[7]; 100 ppb added,1.0 points
same,Off-Flavor Intensity,[7]; 100 ppt added,2.3 points
"CC(=O)/C=C/C1=C(C)CCCC1(C)C [β-Ionone, β-ionone]",Off-Flavor Intensity,[1]; 0.01 ppt added,3.3 points
same,Off-Flavor Intensity,[1]; 0.1 ppt added,2.9 points
same,Off-Flavor Intensity,[1]; 1 ppb added,1.8 points
same,Off-Flavor Intensity,[1]; 1 ppm added,0.4 points
same,Off-Flavor Intensity,[1]; 1 ppt added,2.6 points
same,Off-Flavor Intensity,[1]; 10 ppb added,1.5 points
same,Off-Flavor Intensity,[1]; 10 ppt added,2.3 points
same,Off-Flavor Intensity,[1]; 100 ppb added,0.8 points
same,Off-Flavor Intensity,[1]; 100 ppt added,2.1 points
same,"concentration that masks the off-flavor and does not affect the flavor of the food and/or beverage itself, lower limit",[2],≥ 0.1 ppt
same,"concentration that masks the off-flavor and does not affect the flavor of the food and/or beverage itself, upper limit",[2],≤ 100 ppb
same,Off-Flavor Intensity,[3]; 0.01 ppt added,3.1 points
same,Off-Flavor Intensity,[3]; 0.1 ppt added,3.0 points
same,Off-Flavor Intensity,[3]; 1 ppb added,1.6 points
same,Off-Flavor Intensity,[3]; 1 ppm added,0.1 points
same,Off-Flavor Intensity,[3]; 1 ppt added,2.6 points
same,Off-Flavor Intensity,[3]; 10 ppb added,1.4 points
same,Off-Flavor Intensity,[3]; 10 ppt added,2.3 points
same,Off-Flavor Intensity,[3]; 100 ppb added,0.8 points
same,Off-Flavor Intensity,[3]; 100 ppt added,2.0 points
same,Off-Flavor Intensity,[4]; 0.01 ppt added,3.3 points
same,Off-Flavor Intensity,[4]; 0.1 ppt added,3.0 points
same,Off-Flavor Intensity,[4]; 1 ppb added,1.8 points
same,Off-Flavor Intensity,[4]; 1 ppm added,0.3 points
same,Off-Flavor Intensity,[4]; 1 ppt added,2.5 points
same,Off-Flavor Intensity,[4]; 10 ppb added,1.4 points
same,Off-Flavor Intensity,[4]; 10 ppt added,2.5 points
same,Off-Flavor Intensity,[4]; 100 ppb added,0.8 points
same,Off-Flavor Intensity,[4]; 100 ppt added,2.3 points
same,Off-Flavor Intensity,[5]; 0.01 ppt added,3.8 points
same,Off-Flavor Intensity,[5]; 0.1 ppt added,3.5 points
same,Off-Flavor Intensity,[5]; 1 ppb added,2.5 points
same,Off-Flavor Intensity,[5]; 1 ppm added,1.0 points
same,Off-Flavor Intensity,[5]; 1 ppt added,3.5 points
same,Off-Flavor Intensity,[5]; 10 ppb added,2.3 points
same,Off-Flavor Intensity,[5]; 10 ppt added,3.4 points
same,Off-Flavor Intensity,[5]; 100 ppb added,1.6 points
same,Off-Flavor Intensity,[5]; 100 ppt added,3.0 points
same,Off-Flavor Intensity,[6]; 0.01 ppt added,3.5 points
same,Off-Flavor Intensity,[6]; 0.1 ppt added,3.3 points
same,Off-Flavor Intensity,[6]; 1 ppb added,2.0 points
same,Off-Flavor Intensity,[6]; 1 ppm added,0.8 points
same,Off-Flavor Intensity,[6]; 1 ppt added,3.0 points
same,Off-Flavor Intensity,[6]; 10 ppb added,1.6 points
same,Off-Flavor Intensity,[6]; 10 ppt added,2.8 points
same,Off-Flavor Intensity,[6]; 100 ppb added,1.4 points
same,Off-Flavor Intensity,[6]; 100 ppt added,2.5 points
same,Off-Flavor Intensity,[7]; 0.01 ppt added,3.4 points
same,Off-Flavor Intensity,[7]; 0.1 ppt added,3.1 points
same,Off-Flavor Intensity,[7]; 1 ppb added,1.8 points
same,Off-Flavor Intensity,[7]; 1 ppm added,0.5 points
same,Off-Flavor Intensity,[7]; 1 ppt added,2.6 points
same,Off-Flavor Intensity,[7]; 10 ppb added,1.4 points
same,Off-Flavor Intensity,[7]; 10 ppt added,2.6 points
same,Off-Flavor Intensity,[7]; 100 ppb added,0.8 points
same,Off-Flavor Intensity,[7]; 100 ppt added,2.3 points
